Laboratory results: patent US20240423207A1, “PICOLINAMIDE COMPOUNDS WITH FUNGICIDAL ACTIVITY” (CORTEVA AGRISCIENCE LLC, priority 2014, published 2024)
Where two headings read alike, the source gives them in different places.

Assays:
[1] = test system: Mycosphaerella graminicola; Anamorph: Septoria tritici; test: Leaf Blotch of Wheat (SEPTTR) fungicidal activity on wheat seedlings; assay type: in vivo; conditions: Zymoseptoria tritici; for pest or weed control at 121.5 g/ha: Low Volume, 121.5 g/H; for pest or weed control at 100 ppm: High Volume
Protocol: Example A: Evaluation of Fungicidal Activity: Leaf Blotch of Wheat (Mycosphaerella graminicola; Anamorph: Septoria tritici; Bayer code […]): Technical grades of materials were dissolved in acetone, which were then mixed with nine volumes of water (H2O) containing 110 ppm Triton X-100. The fungicide solutions were applied onto wheat seedlings using an automated booth sprayer to run-off. All sprayed plants were allowed to air dry prior to further handling. All fungicides were evaluated using the aforementioned method for their activity vs. all target diseases, unless stated otherwise. Wheat leaf blotch and brown rust activity were also evaluated using track spray applications, in which case the fungicides were formulated as EC formulations, containing 0.1% Trycol 5941 in the spray solutions. Wheat plants (variety Yuma) were grown from seed in a greenhouse in 50% mineral soil/50% soil-less Metro mix until the first leaf was fully emerged, with 7-10 seedlings per pot. These plants were inoculated with an aqueous spore suspension of Septoria tritici either prior to or after fungicide treatments. After inoculation the plants were kept in 100% relative humidity (one day in a dark dew chamber followed by two to three days in a lighted dew chamber at 20° C.) to permit spores to germinate and infect the leaf. The plants were then transferred to a greenhouse set at 20° C. for disease to develop. When disease symptoms were fully expressed on the 1st leaves of untreated plants, infection levels were assessed on a scale of 0 to 100 percent disease severity. Percent disease control was calculated using the ratio of disease severity on treated plants relative to untreated plants.

[2] = test system: Puccinia triticina; Synonym: Puccinia recondita f sp. tritici; test: Wheat Brown Rust (PUCCRT) fungicidal activity on wheat seedlings; assay type: in vivo; conditions: for pest or weed control at 121.5 g/ha: Low Volume, 121.5 g/H; for pest or weed control at 100 ppm: High Volume
Protocol: Technical grades of materials were dissolved in acetone, which were then mixed with nine volumes of water (H2O) containing 110 ppm Triton X-100. The fungicide solutions were applied onto wheat seedlings using an automated booth sprayer to run-off. All sprayed plants were allowed to air dry prior to further handling. All fungicides were evaluated using the aforementioned method for their activity vs. all target diseases, unless stated otherwise. Wheat leaf blotch and brown rust activity were also evaluated using track spray applications, in which case the fungicides were formulated as EC formulations, containing 0.1% Trycol 5941 in the spray solutions. Wheat plants (variety Yuma) were grown from seed in a greenhouse in 50% mineral soil/50% soil-less Metro mix until the first leaf was fully emerged, with 7-10 seedlings per pot. These plants were inoculated with an aqueous spore suspension of Septoria tritici either prior to or after fungicide treatments. After inoculation the plants were kept in 100% relative humidity (one day in a dark dew chamber followed by two to three days in a lighted dew chamber at 20° C.) to permit spores to germinate and infect the leaf. The plants were then transferred to a greenhouse set at 20° C. for disease to develop. When disease symptoms were fully expressed on the 1st leaves of untreated plants, infection levels were assessed on a scale of 0 to 100 percent disease severity. Percent disease control was calculated using the ratio of disease severity on treated plants relative to untreated plants. Example B: Evaluation of Fungicidal Activity: Wheat Brown Rust (Puccinia triticina; Synonym: Puccinia recondita f sp. tritici; Bayer code PUCCRT): Wheat plants (variety Yuma) were grown from seed in a greenhouse in 50% mineral soil/50% soil-less Metro mix until the first leaf was fully emerged, with 7-10 seedlings per pot. These plants were inoculated with an aqueous spore suspension of Puccinia triticina either prior to or after fungicide treatments. After inoculation the plants were kept in a dark dew room at 22° C. with 100% relative humidity overnight to permit spores to germinate and infect the leaf. The plants were then transferred to a greenhouse set at 24° C. for disease to develop. Fungicide formulation, application and disease assessment followed the procedures as described in the Example A.

[3] = 24 h, 1 Day Protectant, read-out: SEPTTR 1DP disease control
[4] = 72 h, 3 Day Curative, read-out: SEPTTR 3DC disease control
[5] = 24 h, 1 Day Protectant, read-out: PUCCRT 1DP disease control
[6] = 72 h, 3 Day Curative, read-out: PUCCRT 3DC disease control

| Compound | pest or weed control at 121.5 g/ha [1, 3] | pest or weed control at 121.5 g/ha [1, 4] | pest or weed control at 121.5 g/ha [2, 5] | pest or weed control at 121.5 g/ha [2, 6] | pest or weed control at 100 ppm [1, 3] | pest or weed control at 100 ppm [1, 4] | pest or weed control at 100 ppm [2, 5] | pest or weed control at 100 ppm [2, 6] |
| --- | --- | --- | --- | --- | --- | --- | --- | --- |
| C#Cc1ccc(C(c2ccc(C#C)cc2)[C@H](C)OC(=O)[C@H](C)NC(=O)c2nccc(OC)c2OCOC(C)=O)cc1 [Cmpd 197] | > 80% | > 80% | > 80% | > 80% | – | – | – | – |
| CC[C@H](NC(=O)c1nccc(OC)c1O)C(=O)O[C@@H](C)C(c1ccc(F)cc1)c1ccc(F)cc1 [Cmpd 114] | – | – | – | – | > 80% | > 80% | > 80% | > 80% |
| COc1ccnc(C(=O)N[C@@H](CC(C)C)C(=O)O[C@@H](C)C(c2ccc(F)cc2)c2ccc(F)cc2)c1OC(C)=O [Cmpd 190] | < 80% | < 80% | < 80% | – | – | – | – | – |
| CCOC(c1ccccc1)(c1ccccc1)[C@H](C)OC(=O)[C@H](C)NC(=O)c1nccc(OC)c1OCOC(C)=O [Cmpd 147] | < 80% | > 80% | < 80% | < 80% | – | – | – | – |
| COc1ccnc(C(=O)N[C@H](C(=O)O[C@@H](C)C(c2ccc(F)cc2)c2ccc(F)cc2)C(C)C)c1OC(C)=O [Cmpd 189] | > 80% | > 80% | > 80% | < 80% | – | – | – | – |
| COc1ccnc(C(=O)N[C@H](C(=O)O[C@@H](C)C(c2ccc(F)cc2)c2ccc(F)cc2)C(C)C)c1OCOC(C)=O [Cmpd 185] | > 80% | > 80% | > 80% | < 80% | – | – | – | – |
| COc1ccnc(C(=O)N[C@@H](C)C(=O)O[C@@H](C)C(c2ccc(F)c(F)c2)c2ccc(F)c(F)c2)c1OC(C)=O [Cmpd 215] | > 80% | > 80% | > 80% | – | – | – | – | – |
| COc1ccnc(C(=O)N[C@@H](C)C(=O)O[C@@H](C)[C@@H](c2ccccc2)c2ccc(F)cc2)c1OCOC(C)=O [Cmpd 199] | > 80% | > 80% | > 80% | > 80% | – | – | – | – |
| COc1ccnc(C(=O)N[C@@H](C)C(=O)O[C@@H](C)C(OC)(c2ccccc2)c2ccccc2)c1OCOC(C)=O [Cmpd 149] | > 80% | > 80% | < 80% | < 80% | – | – | – | – |
| COc1ccnc(C(=O)N[C@@H](C)C(=O)O[C@@H](C)C(c2ccc(C)s2)c2ccc(C)s2)c1OC(C)=O [Cmpd 166] | < 80% | < 80% | < 80% | – | – | – | – | – |
| COc1ccc(C(c2ccc(OC)cc2)[C@H](C)OC(=O)[C@H](C)NC(=O)c2nccc(OC)c2OCOC(C)=O)cc1 [Cmpd 158] | > 80% | > 80% | > 80% | > 80% | – | – | – | – |
| COc1ccnc(C(=O)N[C@@H](CC(C)C)C(=O)O[C@@H](C)C(c2ccc(F)cc2)c2ccc(F)cc2)c1O [Cmpd 116] | – | – | – | – | < 80% | < 80% | < 80% | – |
| CCOCC(=O)OCOc1c(OC)ccnc1C(=O)N[C@@H](C)C(=O)O[C@@H](C)C(c1ccc(F)cc1)c1ccc(F)cc1 [Cmpd 212] | > 80% | > 80% | > 80% | > 80% | – | – | – | – |
| COc1ccnc(C(=O)N[C@@H](C)C(=O)O[C@@H](C)C(c2cccc(Cl)c2)c2cccc(Cl)c2)c1OCOC(C)=O [Cmpd 160] | > 80% | > 80% | > 80% | < 80% | – | – | – | – |
| COc1ccnc(C(=O)N[C@@H](C)C(=O)O[C@@H](C)C(c2ccc(F)cc2F)c2ccc(F)cc2F)c1O [Cmpd 96] | – | – | – | – | > 80% | > 80% | > 80% | > 80% |
| COc1ccc(C(c2ccc(OC)cc2)[C@H](C)OC(=O)[C@H](C)NC(=O)c2nccc(OC)c2OC(C)=O)cc1 [Cmpd 155] | > 80% | > 80% | > 80% | > 80% | – | – | – | – |
| C[C@H](NC(=O)c1ncccc1O)C(=O)O[C@@H](C)C(c1ccc(F)cc1)c1ccc(F)cc1 [Cmpd 110] | – | – | – | – | > 80% | > 80% | > 80% | – |
| CCc1ccc(C(c2ccc(CC)cc2)[C@H](C)OC(=O)[C@H](C)NC(=O)c2nccc(OC)c2O)cc1 [Cmpd 124] | – | – | – | – | > 80% | > 80% | > 80% | > 80% |
| COc1ccccc1C(c1ccccc1OC)[C@H](C)OC(=O)[C@H](C)NC(=O)c1nccc(OC)c1O [Cmpd 117] | – | – | – | – | > 80% | > 80% | > 80% | < 80% |
| COc1ccnc(C(=O)N[C@@H](C)C(=O)O[C@@H](C)[C@@H](c2ccccc2)c2ccc(C(F)(F)F)cc2)c1O [Cmpd 106] | – | – | – | – | > 80% | > 80% | > 80% | – |
| COc1ccnc(C(=O)N[C@@H](C)C(=O)O[C@@H](C)C(c2ccc(F)c(Cl)c2)c2ccc(F)c(Cl)c2)c1OC(C)=O [Cmpd 216] | > 80% | < 80% | > 80% | < 80% | – | – | – | – |
| COc1ccnc(C(=O)N[C@@H](C)C(=O)O[C@@H](C)C(c2cccs2)c2cccs2)c1O [Cmpd 91] | – | – | – | – | > 80% | – | > 80% | < 80% |
| COc1cccc(C(c2cccc(OC)c2)[C@H](C)OC(=O)[C@H](C)NC(=O)c2nccc(OC)c2O)c1 [Cmpd 118] | – | – | – | – | < 80% | > 80% | > 80% | > 80% |
| COc1ccnc(C(=O)N[C@@H](C)C(=O)O[C@@H](C)C(c2ccc(Br)cc2)c2ccc(Br)cc2)c1OC(C)=O [Cmpd 165] | > 80% | > 80% | > 80% | < 80% | – | – | – | – |
| COc1ccnc(C(=O)N[C@@H](C)C(=O)O[C@@H](C)C(c2ccc(C)s2)c2ccc(C)s2)c1OCOC(C)=O [Cmpd 170] | < 80% | < 80% | < 80% | < 80% | – | – | – | – |
| COCCC(=O)Oc1c(OC)ccnc1C(=O)N[C@@H](C)C(=O)O[C@@H](C)C(c1ccc(F)cc1)c1ccc(F)cc1 [Cmpd 209] | > 80% | > 80% | > 80% | < 80% | – | – | – | – |
| COc1ccnc(C(=O)N[C@@H](C)C(=O)O[C@@H](C)C(c2cccc(Cl)c2)c2cccc(Cl)c2)c1OC(C)=O [Cmpd 157] | > 80% | > 80% | > 80% | > 80% | – | – | – | – |
